# Where two headings read alike, the source gives them in different places. Where a SMILES comes first, the peptide text is derived from it. [ ]: non-standard residue; d: D form. The star is where a group is joined. Lithocholoyl = C[C@H](CCC(=O)*)[C@H]1CC[C@H]2[C@@H]3CC[C@@H]4C[C@H](O)CC[C@]4(C)[C@H]3CC[C@]12C; Palmitoyl = CCCCCCCCCCCCCCCC(=O)*
# Tests used:
# Gi-coupled receptor APJ = target: T1, Gi-coupled receptor APJ (Homo sapiens, UniProt P35414); test: HTRF cAMP assay, inhibition of NKH477 stimulated cAMP in HEK cells stably expressing APJ (APJ-h HEK 293 cells); format: cell-based; conditions: HEK cells stably expressing APJ
# T1 sequence (P35414 1-380): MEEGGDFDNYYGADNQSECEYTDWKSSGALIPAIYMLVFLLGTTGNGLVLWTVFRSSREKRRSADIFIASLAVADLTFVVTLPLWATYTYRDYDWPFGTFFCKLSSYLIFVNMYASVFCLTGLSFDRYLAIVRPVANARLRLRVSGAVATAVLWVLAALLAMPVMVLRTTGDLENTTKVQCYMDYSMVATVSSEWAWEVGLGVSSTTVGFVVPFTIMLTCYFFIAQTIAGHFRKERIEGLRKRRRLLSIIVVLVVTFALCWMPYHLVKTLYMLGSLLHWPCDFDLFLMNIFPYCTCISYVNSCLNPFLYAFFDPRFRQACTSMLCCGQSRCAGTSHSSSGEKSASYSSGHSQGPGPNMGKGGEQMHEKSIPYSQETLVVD
# Description: HTRF (homogeneous time resolved fluorescence) is a technology developed by Cisbio Bioassays based on TR-FRET (time-resolved fluorescence resonance energy transfer). Cisbio Bioassays has developed a wide selection of HTRF-based assays compatible with whole cells, thereby enabling functional assays to run under more physiological conditions. The IP-One assays are competitive immunoassays using cryptate-labeled anti-IP1 monoclonal antibody and d2-labeled IP1. IP1 is a relatively stable downstream metabolite of IP3, and accumulates in cells following Gq receptor activation.
# cAMP kits based on a competitive immunoassay using cryptate-labeled anti-cAMP antibody and d2-labeled cAMP were used to assay the effects of APJ compounds of the present invention. […] Cells are treated with […] doxycycline and seeded in all white 96 well plates @ 40 k/well overnight.
# APJ receptor = target: T2, APJ receptor (Homo sapiens, UniProt P35414); test: HTRF cAMP assay, inhibition of NKH477 stimulated cAMP in Human TRex cells expressing APJ upon doxycycline induction (APJ-hTREX); format: cell-based; conditions: for Ranking: class combining EC50 and % histamine; for percent intrinsic activity at 0.3 µM: read-out: % IA (@ 300 nM)
# T2 construct: expressed in transfected cells; host or cells: Human TRex cells (doxycycline-inducible)
# T2 sequence (P35414 1-380): T1 sequence (P35414 1-380)
# How it was run: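 Cells stimulated with NKH477 and cAMP measured by HTRF competitive immunoassay (cryptate anti-cAMP antibody, d2-labeled cAMP). APJ-hTREX cells induced with […] doxycycline and seeded overnight at 40 k/well.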
# [1] = target: T3, APJ receptor (β-arrestin recruitment) (Homo sapiens, UniProt P35414); test: β-Arrestin signaling assay (DiscoveRx PathHunter, enzyme fragment complementation); format: cell-based; conditions: for β-arrestin recruitment (dose dependent increase in chemiluminescence): in words; for Emax: read-out: β-arrestin Signaling Max Response
# T3 sequence (P35414 1-380): T1 sequence (P35414 1-380)
# Description: Activation of the β-Arrestin signaling pathway was monitored using the commercially available DiscoveRx PathHunter® assay. This assay employs a homogenous, non-imaging assay format called Enzyme Fragment Complementation (EFC) using β-galactosidase (β-Gal) as the functional reporter. […] EA is fused to β-Arrestin and ED is fused to the GPCR of interest. When the GPCR is activated and β-Arrestin is recruited to the receptor, ED and EA complementation occurs, restoring βGal activity which is measured using chemiluminescent PathHunter® Detection Reagent.
Compound,"inhibition of NKH477 stimulated increase in cAMP (concentration response curves, FIGS. 1A-1E) (Gi-coupled receptor APJ)",EC50 (APJ receptor) [nM],Ranking (APJ receptor),percent intrinsic activity at 0.3 µM (APJ receptor) [%],Histimine (% vs. 48/40) (Histimine (% vs. 48/40)) [%],β-arrestin recruitment (dose dependent increase in chemiluminescence) [1],Emax [1] [%],"EC50 (APJ receptor; inhibition of NKH477 stimulated cAMP, APJ-hTREX cells, read-out: APJ-hTREX EC50) [nM]","EC50 ([1]; PathHunter chemiluminescence, read-out: β-arrestin Signaling EC50) [nM]"
CCCCCCCCCCCCCCCC(=O)N[C@H](C(=O)N[C@H](C(=O)N[C@@H](Cc1ccccc1)C(=O)N[C@@H](CCCNC(=N)N)C(=O)N[C@@H](CO)C(=O)N[C@@H](CO)C(=O)N[C@@H](CCC(=O)O)C(=O)N[C@H](CCCCN)C(=O)N[C@@H](CCCNC(=N)N)C(=O)N[C@@H](CCCNC(=N)N)C(=O)N[C@@H](CO)C(=O)N[C@@H](C)C(=O)N[C@@H](CC(=O)O)C(=O)N[C@H](C(=O)N[C@@H](Cc1ccccc1)C(=O)N[C@H](C(N)=O)[C@@H](C)CC)[C@@H](C)CC)C(C)C)[C@@H](C)O [Compound 1] (Palmitoyl-TVFRSSE[dK]RRSADIFI-NH2),in a dose dependent manner,56.7,***** (EC50<100 nM and % histamine<35%),81,33,,,,
CCCCCCCCCCCCCCCC(=O)N[C@@H](CCC(N)=O)C(=O)N[C@H](C(=O)N[C@@H](Cc1ccccc1)C(=O)N[C@@H](CCCNC(=N)N)C(=O)N[C@@H](CO)C(=O)N[C@@H](CO)C(=O)N[C@@H](CCC(=O)O)C(=O)N[C@H](CCCCN)C(=O)N[C@@H](CCCNC(=N)N)C(=O)N[C@@H](CCCNC(=N)N)C(=O)N[C@@H](CO)C(=O)N[C@@H](C)C(=O)N[C@@H](CC(=O)O)C(=O)N[C@H](C(=O)N[C@@H](Cc1ccccc1)C(=O)N[C@H](C(N)=O)[C@@H](C)CC)[C@@H](C)CC)C(C)C [Compound 20] (Palmitoyl-QVFRSSE[dK]RRSADIFI-NH2),in a dose dependent manner,60.7,***** (EC50<100 nM and % histamine<35%),61,29,,,,
CCCCCCCCCCCCCCCC(=O)N[C@H](C(=O)N[C@H](C(=O)N[C@@H](Cc1ccccc1)C(=O)N[C@@H](CCCNC(=N)N)C(=O)N[C@@H](CO)C(=O)N[C@@H](CCC(N)=O)C(=O)N[C@@H](CCC(=O)O)C(=O)N[C@H](CCCCN)C(=O)N[C@@H](CCCNC(=N)N)C(=O)N[C@@H](CCCNC(=N)N)C(=O)N[C@@H](CO)C(=O)N[C@@H](C)C(=O)N[C@@H](CC(=O)O)C(=O)N[C@H](C(=O)N[C@@H](Cc1ccccc1)C(=O)N[C@H](C(N)=O)[C@@H](C)CC)[C@@H](C)CC)C(C)C)[C@@H](C)O [Compound 24] (Palmitoyl-TVFRSQE[dK]RRSADIFI-NH2),in a dose dependent manner,42.6,***** (EC50<100 nM and % histamine<35%),70,22,,,,
CCCCCCCCCCCCCCCC(=O)N[C@H](C(=O)N[C@H](C(=O)N[C@@H](Cc1ccccc1)C(=O)N[C@@H](CCCNC(=N)N)C(=O)N[C@@H](CO)C(=O)N[C@@H](CO)C(=O)N[C@@H](CCC(=O)O)C(=O)N[C@H](CCCCN)C(=O)N[C@@H](CCCNC(=N)N)C(=O)NCC(=O)N[C@@H](CO)C(=O)N[C@@H](C)C(=O)N[C@@H](CC(=O)O)C(=O)N[C@H](C(=O)N[C@@H](Cc1ccccc1)C(=O)N[C@H](C(N)=O)[C@@H](C)CC)[C@@H](C)CC)C(C)C)[C@@H](C)O [Compound 76] (Palmitoyl-TVFRSSE[dK]RGSADIFI-NH2),,,,46,25,,,,
CCCCCCCCCCCCCCCC(=O)N[C@H](C(=O)N[C@H](C(=O)N[C@@H](Cc1ccccc1)C(=O)N[C@@H](CCCNC(=N)N)C(=O)N[C@@H](CO)C(=O)N[C@@H](CO)C(=O)N[C@@H](CCC(=O)O)C(=O)N[C@H](CCCCN)C(=O)N[C@@H](CCCNC(=N)N)C(=O)N[C@@H](CCCNC(=N)N)C(=O)NCC(=O)N[C@@H](C)C(=O)N[C@@H](CC(=O)O)C(=O)N[C@H](C(=O)N[C@@H](Cc1ccccc1)C(=O)N[C@H](C(N)=O)[C@@H](C)CC)[C@@H](C)CC)C(C)C)[C@@H](C)O [Compound 77] (Palmitoyl-TVFRSSE[dK]RRGADIFI-NH2),,,,64,53,,,,
CCCCCCCCCCCCCCCC(=O)N[C@H](C(=O)N[C@H](C(=O)N[C@@H](Cc1ccccc1)C(=O)N[C@@H](CCCNC(=N)N)C(=O)N[C@@H](CO)C(=O)N[C@@H](CO)C(=O)N[C@@H](CCC(=O)O)C(=O)N[C@H](CCCCN)C(=O)N[C@@H](CCCNC(=N)N)C(=O)N[C@@H](CCCNC(=N)N)C(=O)N[C@@H](CO)C(=O)N[C@@H](C)C(=O)NCC(=O)N[C@H](C(=O)N[C@@H](Cc1ccccc1)C(=O)N[C@H](C(N)=O)[C@@H](C)CC)[C@@H](C)CC)C(C)C)[C@@H](C)O [Compound 78] (Palmitoyl-TVFRSSE[dK]RRSAGIFI-NH2),,,,60,62,,,,
CCCCCCCCCCCCCCCC(=O)N[C@H](C(=O)N[C@H](C(=O)N[C@@H](Cc1ccccc1)C(=O)N[C@@H](CCCNC(=N)N)C(=O)N[C@@H](CO)C(=O)N[C@@H](CO)C(=O)N[C@@H](CCC(=O)O)C(=O)N[C@H](CCCCN)C(=O)N[C@@H](CCCNC(=N)N)C(=O)N[C@@H](CCCNC(=N)N)C(=O)N[C@@H](CO)C(=O)N[C@@H](C)C(=O)N[C@@H](CC(=O)O)C(=O)N[C@H](C(=O)NCC(=O)N[C@H](C(N)=O)[C@@H](C)CC)[C@@H](C)CC)C(C)C)[C@@H](C)O [Compound 79] (Palmitoyl-TVFRSSE[dK]RRSADIGI-NH2),,,,39,43,,,,
CCCCCCCCCCCCCCCC(=O)N[C@H](C(=O)N[C@H](C(=O)N[C@@H](Cc1ccccc1)C(=O)N[C@@H](CCCNC(=N)N)C(=O)N[C@@H](CO)C(=O)N[C@@H](CO)C(=O)N[C@@H](CCC(=O)O)C(=O)N[C@H](CCCCN)C(=O)N[C@@H](CCCNC(=N)N)C(=O)N[C@@H](CCCNC(=N)N)C(=O)N[C@@H](CO)C(=O)N[C@@H](C)C(=O)N[C@@H](CC(=O)O)C(=O)N[C@H](C(=O)N[C@@H](Cc1ccccc1)C(=O)NCC(N)=O)[C@@H](C)CC)C(C)C)[C@@H](C)O [Compound 80] (Palmitoyl-TVFRSSE[dK]RRSADIFG-NH2),,,,35,52,,,,
CC[C@H](C)[C@H](NC(=O)[C@H](Cc1ccccc1)NC(=O)[C@@H](NC(=O)[C@H](CC(=O)O)NC(=O)[C@H](C)NC(=O)[C@H](CO)NC(=O)[C@H](CCCNC(=N)N)NC(=O)[C@H](CCCNC(=N)N)NC(=O)[C@H](CCCCN)NC(=O)[C@H](CCC(=O)O)NC(=O)[C@H](CO)NC(=O)[C@H](CO)NC(=O)[C@H](CCCNC(=N)N)NC(=O)[C@H](CC(=O)O)NC(=O)[C@@H](NC(=O)[C@@H](NC(=O)CC[C@@H](C)[C@H]1CC[C@H]2[C@@H]3CC[C@@H]4C[C@H](O)CC[C@]4(C)[C@H]3CC[C@]12C)[C@@H](C)O)C(C)C)[C@@H](C)CC)C(N)=O [Compound 82] (Lithocholoyl-TVDRSSEKRRSADIFI-NH2; N-terminus assumed),,,,,,weakly engaged,20,,
CCCCCCCCCCCCCCCC(=O)N[C@H](C(=O)N[C@H](C(=O)N[C@@H](Cc1ccccc1)C(=O)N[C@@H](CCC(N)=O)C(=O)N[C@@H](CO)C(=O)N[C@@H](CCC(=O)O)C(=O)N[C@H](CCCCN)C(=O)N[C@@H](CCCNC(=N)N)C(=O)N[C@@H](CCCNC(=N)N)C(=O)N[C@@H](CO)C(=O)N[C@@H](C)C(=O)N[C@@H](CC(=O)O)C(=O)N[C@@H](CCC(N)=O)C(=O)N[C@@H](Cc1ccccc1)C(=O)N[C@H](C(N)=O)[C@@H](C)CC)C(C)C)[C@@H](C)O [Compound 87] (Palmitoyl-TVFQSE[dK]RRSADQFI-NH2; C-terminus assumed),,,*** (EC50<100 nM and % histamine>35%),,48,weakly engaged,47,11,34.4
